{
  "source": "patent US4731363A",
  "about": "“Thromboxane synthase inhibitors as insulin lowering agents and antiobesity agents” (priority 1986, dated 1988)",
  "key": {"[1]": {"tested_on": "isolated perfused rat pancreas", "experiment": "Insulin secretion by isolated perfused rat pancreas", "set-up": "key: insulin AUC ratio: 1st glucose pulse / 2nd pulse with compound", "conditions": "100 μM; 16.7 mM glucose; control 1.0 ± 0.04 (n = 5)", "description": "Determination of Insulin-Secretory Activity in the Isolated Perfused Rat Pancreas\nPancreata were obtained from young adult female Charles River rats weighing from 200-300 g. The animals were anaesthesized with sodium pentobarbitol (45 mg/kg), injected intraperitoneally, and the pancreas with its intact vasculature was removed and connected to an extracorporeal perfusion apparatus.\nThe basic perfusion solution contained: 133 mM NaCl, 4.4 mM KCl, 2.5 mM MgSO4, 2.4 mM Ca gluconate, 1.5 mM KH2 PO4, 29.4 mM NaHCO3, 4% dextran and 0.2% bovine serum albumin and glucose as discussed below. The perfusion flow rate was kept constant at 4 ml/min. After a 15-20 min equilibration period, the experimental protocol was begun. The pancreatic effluent was collected in either one or four-minute fractions.\nThe perfusion was run in the following sequence:\n30 min 16.7 mM glucose-internal control\n30 min 16.7 mM glucose and test compound\n5 min 20 mM arginine-to check pancreas viability\nTest compounds were dissolved in 90% ethanol to a concentration of 25 mM and then diluted in the perfusion buffer to the desired concentration. The perfusion effluent was collected in one or four min fractions-the samples were checked immediately, aliquoted for submission to radioimmunoassay and stored at -20° C. until the time of assay. The radioimmunoassay of insulin was carried out by a back-titration method using a pure rat insulin standard.\nTo assess the inhibitory activity of the test compounds, an inhibition index was calculated. The inhibition index is derived by comparing the insulin secretion response from treated versus nontreated pancreas preparations. For each preparation, a ratio of insulin secretion was calculated from the area under the insulin secretion curve of the first pulse of 16.7 mM glucose divided by the area under the curve of the second pulse of 16.7 mM glucose containing compound."}, "[2]": {"biological_target": "T1, thromboxane synthase (Human Platelet Microsomes) (Homo sapiens, UniProt P24557)", "T1 construct": "Platelets were obtained from 320 ml of whole blood and resuspended in 5.0 ml of Krebs-Hensleit buffer; from tissue; host or cells: human platelets (microsomes, 110,000 g pellet)", "T1 sequence (P24557 1-533)": "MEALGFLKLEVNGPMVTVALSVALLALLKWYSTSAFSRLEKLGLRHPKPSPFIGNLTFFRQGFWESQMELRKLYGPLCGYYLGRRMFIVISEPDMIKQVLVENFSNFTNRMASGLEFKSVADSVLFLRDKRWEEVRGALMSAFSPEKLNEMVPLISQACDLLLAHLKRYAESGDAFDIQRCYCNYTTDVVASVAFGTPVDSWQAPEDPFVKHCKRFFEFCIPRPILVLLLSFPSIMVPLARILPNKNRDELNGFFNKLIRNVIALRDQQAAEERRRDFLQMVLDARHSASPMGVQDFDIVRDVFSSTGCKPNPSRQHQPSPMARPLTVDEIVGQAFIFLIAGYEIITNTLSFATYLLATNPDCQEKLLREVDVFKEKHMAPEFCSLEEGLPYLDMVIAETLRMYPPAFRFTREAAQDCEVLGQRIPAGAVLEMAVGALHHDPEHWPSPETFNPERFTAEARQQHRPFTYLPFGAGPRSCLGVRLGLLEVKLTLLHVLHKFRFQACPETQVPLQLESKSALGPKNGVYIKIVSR", "experiment": "Thromboxane synthase inhibition, human platelet microsomes", "type": "biochemical", "conditions": "enzyme source H = Human Platelet Microsomes; read-out: IC50", "description": "In said assay procedure, microsomes from guinea pig lung or human platelets are added to an endoperoxide intermediate in prostaglandin biosynthesis and the inhibitor in phosphate buffer solution followed by incubation, extraction and determination of the extent of thromboxane synthase inhibition by TLC with radiochromatographic profile analysis.\nDetermination of Inhibition of Thromboxane Synthase Activity Isolation of Human Platelet Microsomes\nPlatelets were obtained from 320 ml of whole blood and resuspended in 5.0 ml of Krebs-Hensleit buffer (CA^+2 free). After three consecutive freeze-thawing cycles, homogenization and centrifugation at 12,000 g for 45 min., the 12,000 supernatant was recentrifuged at 110,000 g for 60 min. The resultant pellet was resuspended in phosphate buffer (0.5 ml, 0.1M, pH 7.5) and stored at -70° until use.\nLow specific activity PGH2 (3.3 μCi/μmole) was obtained from Dr. W. E. M. Lands of the University of Michigan. PGH2 of higher specific activity (16.0 μCi/μmole) was purchased from Ran Biochemicals, Tel-Aviv, Israel.\nThe inhibitors tested were prepared as solutions (1-10 mg/ml) in 95% ethanol.\nAssay for Thromboxane Synthase\nTo a 12×75 mm tube containing [1-^14 C] PGH2 (2 μg, 0.01 μCi or 0.05 μCi) and inhibitor (1 mM final assay concentration, in 10 μl of ethanol) in 225 μl of phosphate buffer (0.1M, pH 7.5), was added to an aliquot of guinea pig lung microsomes (25 μl, containing 400 μg protein) or an aliquot of human platelet microsomes (25 μl, containing .congruent.[…] protein). The solution was incubated in a 22° water bath for 2 min.; ether (1 ml) and citric acid (25 μMoles) were added, and the tube plunged into an acetone-dry ice bath. The ether extract was transferred to a 1.0 ml Reacti-vial, and the volume reduced under nitrogen to .congruent.50 μl.\nThe extract was applied to an I.T.L.C., type SG, glass fiber sheet (Gelman Instrument Co., Ann Arbor, Mich.) and developed in isooctane; methyl ethyl ketone: acetic acid (100:19:1 or 100:9:1) (19). The sheets were air dried and scanned using a Berthold LB 2760 Radiochromatographic Scanner. In certain cases, based on the radiochromatographic profile obtained, the sheets were cut, the appropriate regions placed in scintillation vials, 10 ml of LSC cocktail (Yorktown Research, S. Hackensack, NJ) added, and the relative cpm determined."}},
  "data": [
    {"smiles": "CC(=O)c1ccc(-n2ccnc2)cc1", "note": "[1-[4-(1H--imidazol-1-yl)phenyl]ethanone, 1-[4-(1H-imidazol-1-yl)phenyl]ethanone]", "values": [
      {"measurement": "Insulin Secretion Inhibition Index", "setting": "[1]", "result": 2},
      {"measurement": "IC50", "setting": "[2]", "result": "1 to 10", "unit": "µM"}
    ]}
  ]
}
